From patent US8202885B2, “Bridged six-membered ring compounds” (Actelion Pharmaceuticals Ltd., priority 2007, dated 2012)

What follows are compounds tested on human Cav3.1 Cav3.2 or Cav3.3 channel (assay: In vitro assay T channel (FLIPR calcium fluorescence)). Conditions: HEK293 cells expressing human Cav3.1, Cav3.2 or Cav3.3; 10 mM Ca2+-induced fluo-4 fluorescence; determined up to 10 μM; read-out: T channel antagonistic activity IC50.
Type: cell-based
Method in brief: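 IC50 (nM) is the antagonist concentration halving the area under the fluorescence peak evoked by 10 mM Ca2+, relative to vehicle, with testing up to 10 μM. Fluo-4-loaded HEK293 cells expressing each human Cav3 subtype received compound 3 min before Ca2+ addition (TEA-based buffer, pH 7.2); signal monitored 8 min at 2 s intervals.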

SMILES | IC50 [µM]
CC(C)C(=O)O[C@@]1(CCN(C)CCCc2cnc3occc3c2)C[C@H]2CC[C@@H]1C=C2c1ccccc1 (relative stereo) [Example 41A, rac-Isobutyric acid (1R*,2R*,4R*)-2-{2-[(3-furo[2,3-b]pyridin-5-yl-propyl)-methyl-amino]-ethyl}-5-phenyl-bicyclo[2.2.2]oct-5-en-2-yl ester] | 8.26
Cc1cc2cc(CCCN(C)CC[C@]3(OC(=O)C(C)C)C[C@H]4CC[C@@H]3C=C4c3ccccc3)cnc2o1 (relative stereo) [Example 42A, rac-Isobutyric acid (1R*,2R*,4R*)-2-(2-{methyl-[3-(2-methyl-furo[2,3-b]pyridin-5-yl)-propyl]-amino}-ethyl)-5-phenyl-bicyclo[2.2.2]oct-5-en-2-yl ester] | > 10
CC(C)C(=O)O[C@@]1(CCN(C)CCCc2nc(-c3ccccc3)c(-c3ccccc3)[nH]2)C[C@H]2CC[C@@H]1C=C2c1ccccc1 (relative stereo) [Example 47A, rac-Isobutyric acid (1R*,2R*,4R*)-2-(2-{[3-(4,5-diphenyl-1H-imidazol-2-yl)-propyl]-methyl-amino}-ethyl)-5-phenyl-bicyclo[2.2.2]oct-5-en-2-yl ester] | 8.03
CC(C)C(=O)O[C@@]1(CCN(C)CCCc2cncc3ccccc23)C[C@H]2CC[C@@H]1C=C2c1ccccc1 (relative stereo) [Example 48A, rac-Isobutyric acid (1R*,2R*,4R*)-2-{2-[(3-isoquinolin-4-yl-propyl)-methyl-amino]-ethyl}-5-phenyl-bicyclo[2.2.2]oct-5-en-2-yl ester] | > 10
CN(CCCc1cnc2ccccc2c1)CC[C@]1(O)C[C@H]2CC[C@@H]1C=C2c1ccccc1 (relative stereo) [Example 49, rac-(1R*,2R*,4R*)-2-{2-[Methyl-(3-quinolin-3-yl-propyl)-amino]-ethyl}-5-phenyl-bicyclo[2.2.2]oct-5-en-2-ol] | > 10
CC(C)C(=O)O[C@@]1(CCN(C)CCCc2cnc3ccccc3c2)C[C@H]2CC[C@@H]1C=C2c1ccccc1 (relative stereo) [Example 49A, rac-Isobutyric acid (1R*,2R*,4R*)-2-{2-[methyl-(3-quinolin-3-yl-propyl)-amino]-ethyl}-5-phenyl-bicyclo[2.2.2]oct-5-en-2-yl ester] | 8.5
CC(C)C(=O)O[C@@]1(CCN(C)CCCc2ccnc3ccccc23)C[C@H]2CC[C@@H]1C=C2c1ccccc1 (relative stereo) [Example 50A, rac-Isobutyric acid (1R*,2R*,4R*)-2-{2-[methyl-(3-quinolin-4-yl-propyl)-amino]-ethyl}-5-phenyl-bicyclo[2.2.2]oct-5-en-2-yl ester] | > 10
CCCC1=C(C)[C@H]2CC[C@@H]1C[C@]2(CCN(C)CCCN(C)C(=O)C(C)(COC)COC)OC(=O)C(C)C (relative stereo) [Example 52A, rac-Isobutyric acid (1R*,2R*,4R*)-2-[2-({3-[(3-methoxy-2-methoxymethyl-2-methyl-propionyl)-methyl-amino]-propyl}-methyl-amino)-ethyl]-6-methyl-5-propyl-bicyclo[2.2.2]oct-5-en-2-yl ester] | 4.21
COCC(C)(COC)C(=O)N(C)CCCN(C)CC[C@]1(OC(=O)C(C)C)C[C@H]2CC[C@@H]1C(c1ccccc1)=C2C (relative stereo) [Example 53A, rac-Isobutyric acid (1R*,2R*,4R*)-2-[2-({3-[(3-methoxy-2-methoxymethyl-2-methyl-propionyl)-methyl-amino]-propyl}-methyl-amino)-ethyl]-5-methyl-6-phenyl-bicyclo[2.2.2]oct-5-en-2-yl ester] | 0.688
COCC(C)(COC)C(=O)N(C)CCCN(C)CC[C@@]1(OC(=O)C(C)C)C[C@H]2CC[C@@H]1C(c1ccccc1)=C2C (relative stereo) [Example 53C, rac-Isobutyric acid (1R*,2S*,4R*)-2-[2-({3-[(3-methoxy-2-methoxymethyl-2-methyl-propionyl)-methyl-amino]-propyl}-methyl-amino)-ethyl]-5-methyl-6-phenyl-bicyclo[2.2.2]oct-5-en-2-yl ester] | 0.906
CC(=O)Nc1cccc2[nH]c(CCCN(C)CC[C@]3(OC(=O)C(C)C)C[C@H]4CC[C@@H]3C=C4c3ccccc3)nc12 (relative stereo) [Example 56A, rac-Isobutyric acid (1R*,2R*,4R*)-2-(2-{[3-(4-acetylamino-1H-benzoimidazol-2-yl)-propyl]-methyl-amino}-ethyl)-5-phenyl-bicyclo[2.2.2]oct-5-en-2-yl ester] | 2.52
CC(C)C(=O)O[C@@]1(CCN(C)CCCc2nc3c(Cl)cccc3[nH]2)C[C@H]2CC[C@@H]1C=C2c1ccccc1 (relative stereo) [Example 57A, rac-Isobutyric acid (1R*,2R*,4R*)-2-(2-{[3-(4-chloro-1H-benzoimidazol-2-yl)-propyl]-methyl-amino}-ethyl)-5-phenyl-bicyclo[2.2.2]oct-5-en-2-yl ester] | 1.99
COc1ccc(Cl)c2[nH]c(CCCN(C)CC[C@]3(OC(=O)C(C)C)C[C@H]4CC[C@@H]3C=C4c3ccccc3)nc12 (relative stereo) [Example 58A, rac-Isobutyric acid (1R*,2R*,4R*)-2-(2-{[3-(7-chloro-4-methoxy-1H-benzoimidazol-2-yl)-propyl]-methyl-amino}-ethyl)-5-phenyl-bicyclo[2.2.2]oct-5-en-2-yl ester] | 0.762
COc1cc(OC)c2nc(CCCN(C)CC[C@]3(OC(=O)C(C)C)C[C@H]4CC[C@@H]3C=C4c3ccccc3)[nH]c2c1 (relative stereo) [Example 59A, rac-Isobutyric acid (1R*,2R*,4R*)-2-(2-{[3-(4,6-dimethoxy-1H-benzoimidazol-2-yl)-propyl]-methyl-amino}-ethyl)-5-phenyl-bicyclo[2.2.2]oct-5-en-2-yl ester] | 0.952

Further lines, results first:

IC50 [µM] | SMILES
> 10 | Cc1cc2cc(CCCN(C)CC[C@]3(O)C[C@H]4CC[C@@H]3C=C4c3ccccc3)cnc2o1 (relative stereo) [Example 42, rac-(1R*,2R*,4R*)-2-(2-{Methyl-[3-(2-methyl-furo[2,3-b]pyridin-5-yl)-propyl]-amino}-ethyl)-5-phenyl-bicyclo[2.2.2]oct-5-en-2-ol]
> 10 | COCC(C)(COC)C(=O)NCCCN(C)CC[C@]1(O)C[C@H]2CC[C@@H]1C=C2c1ccccc1 (relative stereo) [Example 43, rac-N-(3-{[2-((1R*,2R*,4R*)-2-Hydroxy-5-phenyl-bicyclo[2.2.2]oct-5-en-2-yl)-ethyl]-methyl-amino}-propyl)-3-methoxy-2-methoxymethyl-2-methyl-propionamide]
2.71 | COCC(C)(COC)C(=O)NCCCN(C)CC[C@]1(OC(=O)C(C)C)C[C@H]2CC[C@@H]1C=C2c1ccccc1 (relative stereo) [Example 43A, rac-Isobutyric acid (1R*,2R*,4R*)-2-(2-{[3-(3-methoxy-2-methoxymethyl-2-methyl-propionylamino)-propyl]-methyl-amino}-ethyl)-5-phenyl-bicyclo[2.2.2]oct-5-en-2-yl ester]
> 10 | COC(C)(C)C(=O)NCCCN(C)CC[C@]1(O)C[C@H]2CC[C@@H]1C=C2c1ccccc1 (relative stereo) [Example 44, rac-N-(3-{[2-((1R*,2R*,4R*)-2-Hydroxy-5-phenyl-bicyclo[2.2.2]oct-5-en-2-yl)-ethyl]-methyl-amino}-propyl)-2-methoxy-2-methyl-propionamide]
> 10 | COC(C)(C)C(=O)NCCCN(C)CC[C@]1(OC(=O)C(C)C)C[C@H]2CC[C@@H]1C=C2c1ccccc1 (relative stereo) [Example 44A, rac-Isobutyric acid (1R*,2R*,4R*)-2-(2-{[3-(2-methoxy-2-methyl-propionylamino)-propyl]-methyl-amino}-ethyl)-5-phenyl-bicyclo[2.2.2]oct-5-en-2-yl ester]
1.7 | CC(C)C(=O)O[C@@]1(CCN(C)CCCNC(=O)C(C)(C)C)C[C@H]2CC[C@@H]1C=C2c1ccccc1 (relative stereo) [Example 45A, rac-Isobutyric acid (1R*,2R*,4R*)-2-(2-{[3-(2,2-dimethyl-propionylamino)-propyl]-methyl-amino}-ethyl)-5-phenyl-bicyclo[2.2.2]oct-5-en-2-yl ester]
> 10 | CN(CCCc1cccnc1)CC[C@]1(O)C[C@H]2CC[C@@H]1C=C2c1ccccc1 (relative stereo) [Example 46, rac-(1R*,2R*,4R*)-2-{2-[Methyl-(3-pyridin-3-yl-propyl)-amino]-ethyl}-5-phenyl-bicyclo[2.2.2]oct-5-en-2-ol]
> 10 | CN(CCCc1ccnc2ccccc12)CC[C@]1(O)C[C@H]2CC[C@@H]1C=C2c1ccccc1 (relative stereo) [Example 50, rac-(1R*,2R*,4R*)-2-{2-[Methyl-(3-quinolin-4-yl-propyl)-amino]-ethyl}-5-phenyl-bicyclo[2.2.2]oct-5-en-2-ol]
> 10 | COCC(C)(COC)C(=O)N(C)CCCN(C)CC[C@]1(O)C[C@H]2CC[C@@H]1C=C2c1ccccc1 (relative stereo) [Example 51, rac-N-(3-{[2-((1R*,2R*,4R*)-2-Hydroxy-5-phenyl-bicyclo[2.2.2]oct-5-en-2-yl)-ethyl]-methyl-amino}-propyl)-3-methoxy-2-methoxymethyl-2,N-dimethyl-propionamide]
4.43 | COCC(C)(COC)C(=O)N(C)CCCN(C)CC[C@]1(OC(=O)C(C)C)C[C@H]2CC[C@@H]1C=C2c1ccccc1 (relative stereo) [Example 51A, rac-Isobutyric acid (1R*,2R*,4R*)-2-[2-({3-[(3-methoxy-2-methoxymethyl-2-methyl-propionyl)-methyl-amino]-propyl}-methyl-amino)-ethyl]-5-phenyl-bicyclo[2.2.2]oct-5-en-2-yl ester]
